Assay results: US20090142753A1, “Compositions and methods for detecting compounds to treat a neurological disorder” (Caritas St. Elizeth Medical Center of Boston, Inc., priority 2005, published 2009)

Key:
human DJ-1 promoter [1] = test: DJ-1 promoter luciferase reporter assay in SH-SY5Y cells stably expressing −1000DJ-Luc; assay type: cell-based; conditions: 24 hours; for DJ-1 promoter-driven luciferase activity normalized to β-galactosidase activity: SH-SY5Y cells stably expressing −1000DJ-Luc, increasing doses; for Luciferase expression directed by the human DJ-1 promoter, fold change relative to untreated: SH-SY5Y −1000DJ-Luc vs 0DJ-Luc, normalized to total protein content (FIG. 6)
Excerpt: (§1) To develop a cell-based assay system where one can identify agents that transcriptionally activate DJ-1, a plasmid vector (−1000DJ-Luc) was made that expressed a luciferase reporter gene directed by the human DJ-1 promoter containing 1000 base pairs upstream and 65 base pairs downstream sequences (−1000 to +65) of the transcription initiation site (FIG. 1). A19 base pair sequence containing +46 to +65 of the DJ-1 gene was fused to the luciferase gene to generate the control plasmid (0DJLuc). A neomycin resistance gene was inserted into the vectors as a selection marker. Next, human dopaminergic SH-SY5Y neuroblastoma cells were transfected with either −1000DJLuc or 0DJLuc selected for stably transfected clones. A plasmid encoding β-galactosidase gene was co-transfected to serve as an internal control for luciferase expression.
To confirm the stable expression of the reporter genes and to evaluate these cells as devices for drug discovery, stably transfected SH-SY5Y cells were treated with increasing doses of H2O2. This agent has been reported to upregulate DJ-1. See for example Reference 21. Twenty-four hours after treatment, cells were harvested to analyze luciferase and β-galactosidase activities. Toxicity induced by the higher dose H2O2 was corrected by reduced β-galactosidase activities. […] SH-SY5Y cells stably expressing −1000DJ-Luc and a plasmid encoding CMV-β-galactosidase were treated with the indicated amount of H2O2 for 24 hours. Luciferase and β-galactosidase activities were then determined. Because cellular toxicity increases with increasing H2O2 dosages, luciferase activity was normalized to β-galactosidase activity, with the value of untreated sample designated as 100. The values shown represent the average of 2 experiments carried out in triplicate. (P<0.05 by Anova). The Luciferase activity in control cell lines expressing 0DJ-Luc was not affected by H2O2. To further validate the cells as tools for compound screening, a rational approach to selecting candidate compounds that can transactivate DJ-1 gene based on the analysis of the human DJ-1 promoter was taken.
SH-SY5Y cells stably expressing −1000DJ-Luc were treated with increasing doses of TSA (FIG. 3A) or sodium butyrate (FIG. 3B) for 24 hours. Results were analyzed as described in FIG. 2. DJ-1 promoter-driven luciferase activity was then assayed.
A. Plasmids and Chemicals. DJ-1 promoter sequences from −1000 to +65 relative to the transcriptional initiation site was amplified from pDJ-1(1)luc by PCR with Xho I and Hind III sites using the following primers: DJ-1 F, 5′ […] (SEQ ID NO:); DJ-1 R, 5′ […] (SEQ ID NO:). The PCR product was then inserted into pGL3basic vector (Promega), between Xho I and Hind III sites to generate 1000DJ-Luc vector. For 0DJ-Luc, the sequences from +46 to +65 relative to the transcriptional initiation site were inserted between XhoI and Hind III sites instead. To facilitate selection, a neomycin resistant gene directed by the SV40 promoter with BamHI and Xho I linker was inserted between the BamHI and SalI sites of pGL3 basic, with the original SalI site abolished after ligation. pON260 encoding β-galactosidase gene was described previously. H2O2, Trichostatin A (TSA), and sodium butyrate were obtained from Sigma.
B. Cells and Transfection. The human neuroblastoma cell line SH-SY5Y was plated in 6 well dish at 70% confluency and co-transfected with 150 ng of pON260 and 25 fmol of −1000DJ-Luc or 0DJ-Luc per well with Transfectin reagent (Bio-Rad). 24 hours after transfection, cells were re-plated in 10 cm dishes and cultured in medium with 800 μg/ml of Geneticin (G418, Invitrogen). Three days later, cells were grown in medium containing 400 μg/ml of Geneticin. Surviving clones were cultured, and expanded, and subjected to analysis.
C. Luciferase and β-galactosidase Assays. Cells were treated with the indicated doses of H2O2, TSA or sodium butyrate for 24 hours before being lysed in reporter lysis buffer (Promega). […]

DJ-1 protein [2] = test: Western blot of endogenous DJ-1 protein in SH-SY5Y cells; assay type: cell-based, human; conditions: for Total endogenous DJ-1 protein levels: SH-SY5Y cells stably expressing −1000DJ-Luc, 24 hours, Western blot (FIG. 4); for DJ-1 protein levels: SH-SY5Y cells, TSA 0, 50, 100 ng/ml, sodium butyrate 0, 2.5, 5, 10 mM (FIG. 6C)
Method: SHSY5Y cells stably expressing −1000DJ-Luc were treated with TSA or sodium butyrate for 24 hours. Total proteins were then extracted and analyzed by SDS-PAGE. After transfer, the membrane was first probed with a mouse monoclonal anti-DJ-1 antibody (1:1000) to reveal DJ-1 expression (Top panel). The membrane was then stripped and re-probed with a goat polyclonal anti-actin (1:1000). Therefore, and without wishing to be bound to theory, it is believed that by activating an anti-oxidative and neuroprotective protein DJ-1, HDAC inhibitors may prevent neuronal cell death in Parkinson disease or other neurodegenerative diseases.
SHSY5Y cells stably expressing −1000DJ-Luc were treated with TSA or sodium butyrate for 24 hours. Total proteins were extracted and analyzed by SDS-PAGE. After transfer, the membrane was first probed with a mouse monoclonal anti-DJ-1 antibody (1:1000) to reveal DJ-1 expression (Top panel). The membrane was then striped and re-probed with a goat polyclonal anti-actin (1:1000).
(§2) SH-SY5Y cells (FIG. 6C), human primary neuronal cultures containing cortical neurons and glia (FIG. 6D), or mouse embryonic stem cells (FIG. 6D) were treated with increasing doses of TSA (0, 50, or 100 ng/ml) and sodium butyrate (0, 2.5, 5, or 10 mM). The cells were then lysed. The protein concentration of each sample was determined using a Protein DC assay (Bio-Rad). Equal amount of proteins (30-40 μg) were resolved by 4-20% Tris-glycine SDS-PAGE in each experiment. Proteins were transferred onto nitrocellulose membranes, and probed with antibodies against DJ-1 (Stressgen) or β-actin (Santa Cruz). DJ-1 protein was then visualized using chemiluminescent detection, ECL WESTERN BLOTTING DETECTION SYSTEM (Amersham, Piscataway, N.J.), according to the manufacturer's instructions.
Human SH-SY5Y cells, a primary neuronal culture containing dopaminergic neurons and glia, or mouse embryonic stem cells were treated with selected HDAC inhibitors for 24 hours. Cells were then lysed in RIPA-DOC buffer (50 mM Tris, pH 7.2; 150 mM NaCl; 1% Triton-X100, 1% deoxycholate and 0.1% SDS) with 1× fresh protease inhibitor cocktail. For analysis of DJ-1 protein levels in mouse brains, C57BL6 mice were injected intraperitoneally with sodium butyrate (1200 mg/kg) or vehicle (PBS) daily for 14 days. Mice were euthanized and the cortical and midbrain tissues were collected, and snap frozen in liquid nitrogen. Tissues were disrupted in RIPA-DOC buffer with 1× protease inhibitor using Dounce homogenizers. Protein concentration of each sample was determined using Protein DC assay (Bio-Rad). Equal amounts of proteins (30-40 μg) were resolved by 4-20% Tris-glycine SDS-PAGE in each experiment. […]

DJ-1 protein [3] = test: Western blot of DJ-1 protein in human primary neuronal cultures; assay type: cell-based; conditions: human primary neuronal cultures containing cortical neurons and glia, increasing doses (FIG. 6D)
Method: as §2
(§3) Human SH-SY5Y cells, a primary neuronal culture containing dopaminergic neurons and glia, or mouse embryonic stem cells were treated with selected HDAC inhibitors for 24 hours. Cells were then lysed in RIPA-DOC buffer (50 mM Tris, pH 7.2; 150 mM NaCl; 1% Triton-X100, 1% deoxycholate and 0.1% SDS) with 1× fresh protease inhibitor cocktail. For analysis of DJ-1 protein levels in mouse brains, C57BL6 mice were injected intraperitoneally with sodium butyrate (1200 mg/kg) or vehicle (PBS) daily for 14 days. […] Protein concentration of each sample was determined using Protein DC assay (Bio-Rad). […]

DJ-1 protein [4] = test: Western blot of DJ-1 protein in mouse embryonic stem cells; assay type: cell-based; conditions: increasing doses (FIG. 6D)
Method: as §2, §3

DJ-1 mRNA = DJ-1 mRNA by quantitative real-time PCR in SH-SY5Y cells; assay type: cell-based, human; conditions: 5 mM, 1-12 hours after treatment
Method: SH-SY5Y cells were treated with 5 mM of sodium butyrate. Cells were then harvested for mRNA one, two, four, eight, and twelve hours after treatment. DJ-1 mRNA levels were quantitated using real-time PCR. DJ-1 mRNA levels were normalized to internal control β-actin mRNA levels.
Total RNA was extracted from the cells treated with sodium butyrate at various time points using Trizol reagent (Invitrogen). The total RNA was then purified with the RNAeasy kit (Qiagen). The quality of the RNA was confirmed using agarose (1%) gel electrophoresis. RNA (1 ng) from each sample was then amplified using Roche LightCycler and Qiagen QuantiTect™ SYBR Green RT-PCR kit according to the manufacturer's instructions. This protocol included: reverse transcription at 50° for 20 minutes, initial activation of Hotstar Taq polymerase at 95° C. for 15 minutes, then 40 cycles of 3-step cycling, including denaturation at 94° C. for 15 seconds; annealing at 58° C. for 20 seconds; extension at 72° C. for 20 sec). A fluorescence detection step was carried out at the end of each cycle. Melting curve analysis (0.1° C. per sec ramping rate, 60-95° C.) was performed with a continuous fluorescence measurement following the 40th cycle. β-actin mRNA was amplified in parallel as an internal control.

DJ-1 protein [5] = test: DJ-1 protein levels in mouse brain in vivo (immunoblot); conditions: C57BL6 mice, 1200 mg/kg intraperitoneally daily for fourteen days, cortical and midbrain tissues
Method: For analysis of DJ-1 protein levels in mouse brains, C57BL6 mice were injected intraperitoneally with vehicle (PBS) or sodium butyrate (1200 mg/kg) daily for fourteen days. Mice were euthanized and the cortical and midbrain tissues were collected, and snap frozen in liquid nitrogen. Tissues were disrupted in RIPA-DOC buffer with 1× protease inhibitor using a Dounce homogenizer. The protein concentration of each sample was determined using a Protein DC assay (Bio-Rad). Equal amounts of proteins (30-40 μg) were resolved by 4-20% Tris-glycine SDS-PAGE in each experiment. Proteins were transferred onto nitrocellulose membranes, and probed with antibodies against DJ-1 (Stressgen) or β-actin (Santa Cruz).
as §3

[6] = test system: 0DJ-Luc control plasmid (+46 to +65 of the DJ-1 gene); test: Luciferase activity in control cell lines expressing 0DJ-Luc; assay type: cell-based, human; conditions: SH-SY5Y 0DJ-Luc cells, 24 hours
Excerpt: as §1
To confirm the stable expression of the reporter genes and to evaluate these cells as devices for drug discovery, stably transfected SH-SY5Y cells were treated with increasing doses of H2O2. This agent has been reported to upregulate DJ-1. See for example Reference 21. Twenty-four hours after treatment, cells were harvested to analyze luciferase and β-galactosidase activities. […] Luciferase and β-galactosidase activities were then determined. […]
C. […] Luciferase and β-galactosidase activities were determined using assay kits following manufacturer's protocol (Promega).

human DJ-1 promoter [7] = test: DJ-1 luciferase assay in 96-well high throughput format; assay type: cell-based; conditions: 1000DJ-Luc SH-SY5Y cells, 96-well format, 5 μM, 24 hours, N=12
Method: FIG. 8 is a graph showing the results of a DJ-1 luciferase assay configured as a high throughput screen. Equal numbers of SH-SY5Y cells stably expressing the 1000DJ-Luc construct were plated in replicate (N=12) with 5 μM pergolide, bromocriptine or SAHA for 24 hours and then assayed for luciferase activity. The assay produced a Z′ value of 0.790 using SAHA as the positive and bromocriptine as the negative control.
The assay described above was carried out in a 96-well format. Twelve replicate samples of 1000DJ-Luc cells were each treated with pergolide or bromocriptine, which served as negative controls, or with SAHA, a compound known to increase DJ-1 expression. 5 μM of each compound was added to the cells in a 30 μl volume. Cells were lysed in 100 μl/well of passive lysis buffer, and 20 μl aliquots of the cell lysates were then used for a luciferase assay. Bromocriptine and pergolide are dopamine receptor agonists used for the treatment of motor symptoms in Parkinson's disease. […] In fact, levels of luciferase activity observed with these compounds were very similar to levels present in untreated control cells. […] A Z′ value was calculated using bromocriptine as the negative control. […] See “A Simple Statistical Parameter for Use in Evaluation and Validation of High Throughput Screening Assays” Zhang J H, Chung T D, Oldenburg K R, J Biomol Screen. 1999; 4(2):67-73.

Compound | DJ-1 promoter-driven luciferase activity normalized to β-galactosidase activity (human DJ-1 promoter [1]) | Luciferase expression directed by the human DJ-1 promoter, fold change relative to untreated (human DJ-1 promoter [1]) | Total endogenous DJ-1 protein levels (DJ-1 protein [2]) | DJ-1 protein levels (DJ-1 protein [2]) | DJ-1 protein levels (DJ-1 protein [3]) | DJ-1 protein levels (DJ-1 protein [4]) | DJ-1 mRNA levels normalized to β-actin mRNA (DJ-1 mRNA) | DJ-1 protein levels in mouse brain (DJ-1 protein [5]) | Luciferase activity in control cell lines expressing 0DJ-Luc [6] | Luciferase activity (human DJ-1 promoter [7])
CC(/C=C/C(=O)NO)=C\[C@@H](C)C(=O)c1ccc(N(C)C)cc1 [TSA, Trichostatin A] | significantly activated the DJ-1 promoter | specifically activate luciferase expression | increased markedly | increased DJ-1 protein levels in a dose dependent fashion | increased DJ-1 protein levels in a dose dependent fashion | increased DJ-1 protein levels in a dose dependent fashion |  |  |  | 
CCCC(=O)[O-].[Na+] [sodium butyrate] | significantly activated the DJ-1 promoter | specifically activate luciferase expression | increased markedly | increased DJ-1 protein levels in a dose dependent fashion | increased DJ-1 protein levels in a dose dependent fashion | increased DJ-1 protein levels in a dose dependent fashion | transient increase in DJ-1 mRNA levels | increased DJ-1 protein levels in mouse brain in vivo |  | 
OO [H2O2] | activated the human DJ-1 promoter in a dose dependent manner |  |  |  |  |  |  |  | not affected | 
O=C(CCCCCCC(=O)Nc1ccccc1)NO [SAHA, suberoylanilide hydroxamic acid] |  | specifically activate luciferase expression |  |  |  |  |  |  |  | substantial levels of luciferase activity
CCCN1C[C@H](CSC)C[C@@H]2c3cccc4[nH]cc(c34)C[C@H]21 [pergolide] |  |  |  |  |  |  |  |  |  | little luciferase activity
